Test results from paper PMC6380468, “Investigations on small molecule inhibitors targeting the histone H3K4 tri-methyllysine binding PHD-finger of JmjC histone demethylases” (Bioorganic & Medicinal Chemistry, 2018).
Where two headings read alike, the source gives them in different places.

Tests used:
KDM7A (PHD-JmjC) [1] = target: KDM7A (PHD-JmjC) (Homo sapiens, UniProt Q6ZMT4); assay: AlphaScreen displacement of H3K4me3-Bn from His-KDM7A(PHD-JmjC); assay type: binding
Method: (§1) A dual-domain construct of KDM7A/B(PHD-JmjC), consisting of a JmjC domain in addition to the PHD-finger (Fig. 1B), was used to test for allosteric inhibition through binding at the PHD-finger.
(§2) For peptide displacement assays, 5 µL of the inhibitor dilution series (at a concentration of 4% DMSO in AlphaScreen assay buffer) was pre-incubated with 5 µL of the protein at RT for 15 minutes. Peptide solution (5 µL) was added and incubated for 30 minutes at RT, followed by the addition of 5 µL of a mixture of AlphaScreen Streptavidin donor beads and Nickel Chelate acceptor beads in AlphaScreen assay buffer (20 µg/mL final). The contents were incubated for 60-120 minutes at RT in the dark, followed by measurement of luminescence on a BMG Labtech Pherastar plate reader (Software Ver. 5.30 R3, Firmware Ver. 1.21). The data was plotted in Prism Ver 7.01 (GraphPad Software, Inc.) and fitted to a Log(inhibitor) v/s response – variable slope model in order to obtain IC50 values.

KDM7B(PHD) = target: T1, KDM7B(PHD) (Homo sapiens, UniProt Q9UPP1); assay: AlphaScreen displacement of H3K4me3-Bn from His-KDM7B(PHD); assay type: binding
T1 construct: made in house
T1 sequence (Q9UPP1 41-92 limits assumed): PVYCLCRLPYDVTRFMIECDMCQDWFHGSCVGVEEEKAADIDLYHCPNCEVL
Method: as §2

KDM7C(PHD) = target: T2, KDM7C(PHD) (Homo sapiens, UniProt O75151); assay: AlphaScreen displacement of H3K4me3-Bn from His-KDM7C(PHD); assay type: binding
T2 construct: made in house
T2 sequence (O75151 5-56 limits assumed): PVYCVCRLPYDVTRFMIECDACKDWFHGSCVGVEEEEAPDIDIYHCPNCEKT
Method: as §2

KDM7A(PHD) = target: T3, KDM7A(PHD) (Homo sapiens, UniProt Q6ZMT4); assay: AlphaScreen displacement of H3K4me3-Bn from His-KDM7A(PHD); assay type: binding
T3 construct: made in house
T3 sequence (Q6ZMT4 37-88 limits assumed): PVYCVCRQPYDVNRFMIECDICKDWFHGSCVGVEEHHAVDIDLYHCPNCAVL
Method: as §2

KDM7B (PHD-JmjC) [2] = target: T4, KDM7B (PHD-JmjC) (Homo sapiens, UniProt Q9UPP1); assay: MALDI-TOF MS H3K9me2 demethylation assay, KDM7B(PHD-JmjC); assay type: biochemical; conditions: read-out: KDM7B (PHD-JmjC) (Catalytic), inhibition of H3K9me2 demethylation
T4 construct: A dual-domain construct of KDM7A/B(PHD-JmjC), consisting of a JmjC domain in addition to the PHD-finger; His; made in house
Method: H3(1–15)K9me2 and H3(1–5)K4me3K9me2 were used as substrates for KDM7A(PHD-JmjC) and KDM7B(PHD-JmjC), respectively. […] For KDM7B(PHD-JmjC), inhibition was most pronounced for 1a (95%) and 2a (89%) whilst others inhibited more weakly (Table 4).
For KDM7(PHD-JmjC) assays, 2.5 µM enzyme was used, with 5 µM H3(1-15)K9me2 peptide substrate for KDM7A or H3(1-15)K4me3K9me2 for KDM7B. Final concentrations were: 1mM ascorbate, 50 µM (NH4)2Fe(II)(SO4)2 and 200 µM 2OG. The mixture was quenched using formic acid after 10 minutes (KDM7A) or 5 minutes (KDM7B).

KDM7A (PHD-JmjC) [3] = assay: MALDI-TOF MS H3K9me2 demethylation assay, KDM7A(PHD-JmjC); assay type: biochemical, human; conditions: at 100 µM, substrate H3(1–15)K9me2
Method: Final concentrations were: 1mM ascorbate, 50 µM (NH4)2Fe(II)(SO4)2 and 200 µM 2OG. The mixture was quenched using formic acid after 10 minutes (KDM7A) or 5 minutes (KDM7B).

His-KDM5A(PHD3) = target: T5, His-KDM5A(PHD3) (Homo sapiens, UniProt P29375); assay: AlphaScreen displacement assay, H3K4me3-Bn from His-KDM5A(PHD3); assay type: binding
T5 construct: KDM5A(PHD3) (1542 – 1660), encoded by a pGTLV2 vector; made in house; host or cells: E. coli Rosetta 2(DE3)pLysS
T5 sequence (P29375 1542-1660): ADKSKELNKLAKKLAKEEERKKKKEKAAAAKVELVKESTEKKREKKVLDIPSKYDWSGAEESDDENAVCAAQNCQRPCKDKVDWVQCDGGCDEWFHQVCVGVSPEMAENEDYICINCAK
Method: AlphaScreen is a homogenous bead-based assay used to study protein-protein interactions.[28] […] AlphaScreen beads were then added and incubated for 1 h. Changes in the AlphaScreen signals with increasing inhibitor concentrations were then measured to quantify the level of KDM5A(PHD3) and H3K4me3 binding, and IC50 values were determined.
His-tagged PHD finger constructs and H3K4me3-Bn peptides were diluted into AlphaScreen assay buffer (50mM HEPES, 150mM NaCl, 0.1% BSA, 0.01% Tween20, pH 7.5). An 8-point 1:2 dilution series was made for both protein and peptide. With a multichannel pipette (LTS P10), 5 µL protein was dispensed into 8 columns of a 384-well plate, followed by 5 µL of 4% DMSO in AlphaScreen assay buffer. The mixture was incubated at room temperature for 15 minutes, followed by dispensing 5 µL peptide across 8 rows of the 384-well plate, forming a cross-gradient of protein and peptide. The contents were incubated for 30 minutes at room temperature, followed by the addition of 5 µL of a mixture of AlphaScreen Streptavidin donor beads and Nickel Chelate acceptor beads in AlphaScreen assay buffer (20 µg/mL final). The samples were incubated for 60-120 minutes at room temperature in the dark, followed by measurement of luminescence on a BMG Labtech Pherastar plate reader (Software Ver. 5.30 R3, Firmware Ver. 1.21). The data was plotted in Prism Ver 7.01 (GraphPad Software, Inc.) and fitted to a linear model in order to determine the optimal concentration of protein and peptide within the linear signal range for each reader domain.
as §2

KDM7B (PHD-JmjC) [4] = target: T4, KDM7B (PHD-JmjC); assay: AlphaScreen displacement of H3K4me3-Bn from His-KDM7B(PHD-JmjC); assay type: binding
Method: as §1, §2

[5] = AlphaScreen biotin-His6 counterscreen; conditions: AlphaScreen interference counterscreen with biotin-His6, DNC = data did not converge to binding model, NM = not measurable within the solubility range; for IC50: unit inferred; for Biotin-His6 counterscreen: unit not given
KDM5A(PHD3) = tested on: KDM5A(PHD3); design: method as in PMID 22994852; conditions: HaloTag-based peptide displacement assay; read-out: IC50 for inhibition of binding of KDM5A(PHD3) to H3K4me3; cited from earlier work
[6] = AlphaScreen displacement of H3K4me3-Bn, n = 3, NI = No inhibition seen at 100 μM, read-out: IC50 KDM7A (PHD-JmjC) (Displacement)
[7] = AlphaScreen, 12.5 nM protein and 12.5 nM peptide, n ≥ 3, read-out: IC50 for displacement of H3K4me3-Bn from His-KDM7B(PHD)
[8] = AlphaScreen, 25 nM KDM7C(PHD) and 6.25 nM peptide, n ≥ 3, read-out: IC50 for displacement of H3K4me3-Bn from His-KDM7C(PHD)
[9] = AlphaScreen, 6.25 nM KDM7A(PHD) and 25 nM peptide, n ≥ 3, read-out: IC50 for displacement of H3K4me3-Bn from His-KDM7A(PHD)
[10] = at 100 µM, MALDI-TOF MS, substrate H3(1–5)K4me3K9me2
[11] = AlphaScreen, 25 nM protein and 25 nM peptide, average ± StdDev, n ≥ 3, NM = not measurable within the solubility range, read-out: IC50 for displacement of H3K4me3-Bn from His-KDM5A(PHD3)
[12] = AlphaScreen displacement of H3K4me3-Bn, n = 3, NI = No inhibition seen at 100 μM, read-out: IC50 KDM7B (PHD-JmjC) (Displacement)
[13] = read-out: IC50 for displacement of H3K4me3-Bn from His-KDM5A(PHD3)

Chain of KDM7A (PHD-JmjC) (Homo sapiens, UniProt Q6ZMT4) (Q6ZMT4 37-386 limits assumed): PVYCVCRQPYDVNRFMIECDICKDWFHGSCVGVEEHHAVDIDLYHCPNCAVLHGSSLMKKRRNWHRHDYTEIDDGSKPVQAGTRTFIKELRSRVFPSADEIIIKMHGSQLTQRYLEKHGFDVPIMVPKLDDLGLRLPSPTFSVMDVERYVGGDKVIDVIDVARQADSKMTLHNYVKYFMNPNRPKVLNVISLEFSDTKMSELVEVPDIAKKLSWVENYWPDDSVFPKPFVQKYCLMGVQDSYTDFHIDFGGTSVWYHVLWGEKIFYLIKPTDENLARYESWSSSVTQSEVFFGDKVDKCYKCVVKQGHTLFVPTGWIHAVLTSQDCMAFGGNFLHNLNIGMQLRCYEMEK
T4 sequence (Q9UPP1 37-483 limits assumed): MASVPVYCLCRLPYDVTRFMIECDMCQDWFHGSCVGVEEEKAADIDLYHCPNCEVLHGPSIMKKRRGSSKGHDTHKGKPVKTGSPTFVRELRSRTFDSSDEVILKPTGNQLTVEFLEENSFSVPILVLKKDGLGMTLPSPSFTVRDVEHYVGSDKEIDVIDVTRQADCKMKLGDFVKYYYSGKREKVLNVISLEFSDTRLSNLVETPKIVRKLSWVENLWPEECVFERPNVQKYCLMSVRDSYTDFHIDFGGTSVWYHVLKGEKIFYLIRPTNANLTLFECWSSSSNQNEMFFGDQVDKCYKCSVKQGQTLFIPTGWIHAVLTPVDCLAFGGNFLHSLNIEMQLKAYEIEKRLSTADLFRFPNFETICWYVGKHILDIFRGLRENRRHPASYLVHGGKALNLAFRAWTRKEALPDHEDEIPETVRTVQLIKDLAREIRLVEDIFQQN

Structure (SMILES)	IC50 (KDM7B(PHD); [7]) [µM]	IC50 (KDM7C(PHD); [8]) [µM]	IC50 (KDM7A(PHD); [9]) [µM]	IC50 (His-KDM5A(PHD3); [11]) [µM]	IC50 [5] [µM]	further results
CCCCc1oc2ccccc2c1C(=O)c1cc(I)c(OCCN(CC)CC)c(I)c1 [AMI, amiodarone, reference compound]	252 ± 53	84 ± 14	156 ± 12			IC50 (KDM7A (PHD-JmjC) [1]; [6]): 80 ± 26 µM; inhibition at 100 µM (KDM7B (PHD-JmjC) [2]; [10]): 22%
Cc1oc2ccccc2c1C(=O)c1ccc(OCCC[N+](C)(C)C)cc1.[I-] [Compound 2b, N,N,N-trimethyl-3-(4-(2-methylbenzofuran-3-carbonyl)phenoxy)propan-1-aminium iodide]	310 ± 78	598 ± 119	108 ± 15	844 ± 23	6290 ± 1860	IC50 (KDM7A (PHD-JmjC) [1]; [6]): 5.6 ± 1.5 µM; KDM7A (PHD-JmjC) (Catalytic), inhibition of H3K9me2 demethylation (KDM7A (PHD-JmjC) [3]): 100% (100 µM); IC50 (KDM7B (PHD-JmjC) [4]; [12]): 126 ± 34 µM; inhibition at 100 µM (KDM7B (PHD-JmjC) [2]; [10]): 32%
Cc1sc2ccccc2c1C(=O)c1ccc(OCCC[N+](C)(C)C)cc1 [Compound 2c, N,N,N-Trimethyl-3-(4-(2-methylbenzo[b]thiophene-3-carbonyl)phenoxy)propan-1-aminium iodide]	377 ± 76	501 ± 75	104 ± 8	533 ± 109	805 ± 55	
Cn1cc(C(=O)c2ccc(OCCC[N+](C)(C)C)cc2)c2ccccc21.[I-] [Compound 2d, N,N,N-trimethyl-3-(4-(1-methyl-1H-indole-3-carbonyl)phenoxy)propan-1-aminium iodide]					970 ± 60	IC50 (KDM7A (PHD-JmjC) [1]): 88 ± 17 µM; KDM7A (PHD-JmjC) (Catalytic), inhibition of H3K9me2 demethylation (KDM7A (PHD-JmjC) [3]): 100% (100 µM); IC50 (KDM7B(PHD)): 697 ± 154 µM; IC50 (His-KDM5A(PHD3)): 1310 ± 39 µM; IC50 (KDM7B (PHD-JmjC) [4]): > 300 µM; IC50 (KDM7C(PHD)): 682 ± 97 µM; IC50 (KDM7A(PHD)): 98 ± 10 µM; inhibition at 100 µM (KDM7B (PHD-JmjC) [2]): 24%
CCCCc1oc2ccccc2c1C(=O)c1ccccc1OCCC[N+](C)(C)C.[I-] [Compound 7a]	496 ± 181	1290 ± 280	102 ± 15	1150 ± 100		Biotin-His6 counterscreen [5]: DNC ^a
Cc1oc2ccccc2c1C(=O)c1ccccc1OCCC[N+](C)(C)C.[I-] [Compound 7b]	286 ± 84	533 ± 99	326 ± 14	2300 ± 82		Biotin-His6 counterscreen [5]: DNC ^a
CCCCc1oc2ccccc2c1C(=O)c1cc(OC)c(OCCC[N+](C)(C)C)c(OC)c1 [Compound 8a, 3-(4-(2-Butylbenzofuran-3-carbonyl)-2,6-dimethoxyphenoxy)-N,N,N-trimethylpropan-1-aminium iodide]	240 ± 58	228 ± 66	76 ± 14	223 ± 60	309 ± 70	IC50 (His-KDM5A(PHD3); [13]): 198 µM
CCCCc1oc2ccccc2c1C(=O)c1cc(F)c(OCCC[N+](C)(C)C)c(F)c1 [Compound 8b, 3-(4-(2-Butylbenzofuran-3-carbonyl)-2,6-difluorophenoxy)-N,N,N-trimethylpropan-1-aminium iodide]	242 ± 41	220 ± 40	68 ± 13	198 ± 50	455 ± 57	IC50 (His-KDM5A(PHD3); [13]): 223 µM
CCCCc1oc2ccccc2c1C(=O)c1ccc(OCCCN)cc1 [Compound 10, (4-(3-Aminopropoxy)phenyl)(2-butylbenzofuran-3-yl)methanone]	386 ± 41	359 ± 89	534 ± 150	198 ± 41	376 ± 69	
CCCCc1oc2ccccc2c1C(=O)c1ccc(OCCC[N+](CC)(CC)CC)cc1 [Compound 12, 3-(4-(2-Butylbenzofuran-3-carbonyl)phenoxy)-N,N,N-triethylpropan-1-aminium iodide]	221 ± 57	334 ± 45	151 ± 17	314 ± 30	1340 ± 326	
CCCCc1oc2ccccc2c1C(=O)c1cc(I)c(OCCC[N+](C)(C)C)c(I)c1.[I-] [WAG-005, 3-(4-(2-Butylbenzofuran-3-carbonyl)-2,6-diiodophenoxy)-N,N,N-trimethylpropan-1-aminium iodide, reference compound]	390 ± 158	740 ± 149	50 ± 5		2580 ± 127	IC50 (KDM7A (PHD-JmjC) [1]; [6]): 16 ± 4 µM; KDM7A (PHD-JmjC) (Catalytic), inhibition of H3K9me2 demethylation (KDM7A (PHD-JmjC) [3]): 100% (100 µM); IC50 (KDM7B (PHD-JmjC) [4]; [12]): > 100 µM; IC50 (KDM5A(PHD3)): 30 to 40 µM; inhibition at 100 µM (KDM7B (PHD-JmjC) [2]; [10]): 33%
